Source: PubChem BioAssay AID1259407 (Chemical Carcinogenesis Research Information System (CCRIS), 2018)
The source made the active and inactive calls. How the calls were made is not given here.

Test system: CCRIS mutagenicity, Ames/micronucleus/aberration tests
Assay: CCRIS mutagenicity studies
Settings: Method: STANDARD PLATE
[1] = Test System: AMES SALMONELLA TYPHIMURIUM, Strain/Indicator: TA98, Metabolic Activation: RAT, LIVER, S-9, AROCLOR 1254
[2] = Test System: AMES SALMONELLA TYPHIMURIUM, Strain/Indicator: TA100, Metabolic Activation: NONE
[3] = Test System: AMES SALMONELLA TYPHIMURIUM, Strain/Indicator: TA100, Metabolic Activation: RAT, LIVER, S-9, AROCLOR 1254
[4] = Test System: AMES SALMONELLA TYPHIMURIUM, Strain/Indicator: TA1535, Metabolic Activation: RAT, LIVER, S-9, AROCLOR 1254
[5] = Test System: AMES SALMONELLA TYPHIMURIUM, Strain/Indicator: TA1538, Metabolic Activation: RAT, LIVER, S-9, AROCLOR 1254

## [O-]/[N+](=N\O)c1ccccc1
Test System: AMES SALMONELLA TYPHIMURIUM, Strain/Indicator: TA98, Metabolic Activation: HAMSTER, LIVER, S-9, AROCLOR 1254
  mutagenic call: inactive; negative
Test System: AMES SALMONELLA TYPHIMURIUM, Strain/Indicator: TA98, Metabolic Activation: MOUSE, LIVER, S-9, AROCLOR 1254
  mutagenic call: inactive; negative
Test System: AMES SALMONELLA TYPHIMURIUM, Strain/Indicator: TA98, Metabolic Activation: MOUSE, LIVER, S-9
  mutagenic call: inactive; negative
Test System: AMES SALMONELLA TYPHIMURIUM, Strain/Indicator: TA98, Metabolic Activation: NONE
  mutagenic call: inactive; negative
[1]
  mutagenic call: inactive; negative
Test System: AMES SALMONELLA TYPHIMURIUM, Strain/Indicator: TA98, Metabolic Activation: RAT, LIVER, S-9
  mutagenic call: inactive; negative
Test System: AMES SALMONELLA TYPHIMURIUM, Strain/Indicator: TA100, Metabolic Activation: HAMSTER, LIVER, S-9, AROCLOR 1254
  mutagenic call: inactive; negative
Test System: AMES SALMONELLA TYPHIMURIUM, Strain/Indicator: TA100, Metabolic Activation: HAMSTER, LIVER, S-9
  mutagenic call: inactive; negative
Test System: AMES SALMONELLA TYPHIMURIUM, Strain/Indicator: TA100, Metabolic Activation: MOUSE, LIVER, S-9, AROCLOR 1254
  mutagenic call: inactive; negative
Test System: AMES SALMONELLA TYPHIMURIUM, Strain/Indicator: TA100, Metabolic Activation: MOUSE, LIVER, S-9
  mutagenic call: inactive; negative
[2]
  mutagenic call: inactive; negative
[3]
  mutagenic call: inactive; negative
Test System: AMES SALMONELLA TYPHIMURIUM, Strain/Indicator: TA100, Metabolic Activation: RAT, LIVER, S-9
  mutagenic call: inactive; negative
Test System: AMES SALMONELLA TYPHIMURIUM, Strain/Indicator: TA1535, Metabolic Activation: HAMSTER, LIVER, S-9, AROCLOR 1254
  mutagenic call: inactive; negative
Test System: AMES SALMONELLA TYPHIMURIUM, Strain/Indicator: TA1535, Metabolic Activation: HAMSTER, LIVER, S-9
  mutagenic call: inactive; negative
Test System: AMES SALMONELLA TYPHIMURIUM, Strain/Indicator: TA1535, Metabolic Activation: MOUSE, LIVER, S-9, AROCLOR 1254
  mutagenic call: inactive; negative
Test System: AMES SALMONELLA TYPHIMURIUM, Strain/Indicator: TA1535, Metabolic Activation: MOUSE, LIVER, S-9
  mutagenic call: inactive; negative
Test System: AMES SALMONELLA TYPHIMURIUM, Strain/Indicator: TA1535, Metabolic Activation: NONE
  mutagenic call: inactive; negative
[4]
  mutagenic call: inactive; negative
Test System: AMES SALMONELLA TYPHIMURIUM, Strain/Indicator: TA1535, Metabolic Activation: RAT, LIVER, S-9
  mutagenic call: inactive; negative
Test System: AMES SALMONELLA TYPHIMURIUM, Strain/Indicator: TA1537, Metabolic Activation: HAMSTER, LIVER, S-9, AROCLOR 1254
  mutagenic call: inactive; negative
Test System: AMES SALMONELLA TYPHIMURIUM, Strain/Indicator: TA1537, Metabolic Activation: HAMSTER, LIVER, S-9
  mutagenic call: inactive; negative
Test System: AMES SALMONELLA TYPHIMURIUM, Strain/Indicator: TA1537, Metabolic Activation: MOUSE, LIVER, S-9, AROCLOR 1254
  mutagenic call: inactive; negative
Test System: AMES SALMONELLA TYPHIMURIUM, Strain/Indicator: TA1537, Metabolic Activation: MOUSE, LIVER, S-9
  mutagenic call: inactive; negative
Test System: AMES SALMONELLA TYPHIMURIUM, Strain/Indicator: TA1537, Metabolic Activation: NONE
  mutagenic call: inactive; negative
Test System: AMES SALMONELLA TYPHIMURIUM, Strain/Indicator: TA1537, Metabolic Activation: RAT, LIVER, S-9, AROCLOR 1254
  mutagenic call: inactive; negative
Test System: AMES SALMONELLA TYPHIMURIUM, Strain/Indicator: TA1537, Metabolic Activation: RAT, LIVER, S-9
  mutagenic call: inactive; negative
Test System: AMES SALMONELLA TYPHIMURIUM, Strain/Indicator: TA1538, Metabolic Activation: HAMSTER, LIVER, S-9, AROCLOR 1254
  mutagenic call: inactive; negative
Test System: AMES SALMONELLA TYPHIMURIUM, Strain/Indicator: TA1538, Metabolic Activation: HAMSTER, LIVER, S-9
  mutagenic call: inactive; negative
[5]
  mutagenic call: inactive; negative
Test System: E. COLI, Strain/Indicator: WP2 UVRA, Metabolic Activation: HAMSTER, LIVER, S-9
  mutagenic call: inactive; negative
Test System: E. COLI, Strain/Indicator: WP2 UVRA, Metabolic Activation: MOUSE, LIVER, S-9, AROCLOR 1254
  mutagenic call: inactive; negative
Test System: E. COLI, Strain/Indicator: WP2 UVRA, Metabolic Activation: MOUSE, LIVER, S-9
  mutagenic call: inactive; negative
Test System: E. COLI, Strain/Indicator: WP2 UVRA, Metabolic Activation: NONE
  mutagenic call: inactive; negative
Test System: E. COLI, Strain/Indicator: WP2 UVRA, Metabolic Activation: RAT, LIVER, S-9
  mutagenic call: inactive; negative

## O=c1[nH]c(=O)n([C@H]2C[C@H](O)[C@@H](CO)O2)cc1COO
[2]
  mutagenic call: active; positive
Test System: AMES SALMONELLA TYPHIMURIUM, Strain/Indicator: TA102, Metabolic Activation: NONE
  mutagenic call: active; positive

## CC(C)CC(NC(=O)COc1ccc(Cl)cc1Cl)C(=O)O (stereo not drawn)
Test System: AMES SALMONELLA TYPHIMURIUM, Strain/Indicator: TA97, Metabolic Activation: RAT, LIVER, S-9, AROCLOR 1254
  mutagenic call: inactive; negative
Test System: AMES SALMONELLA TYPHIMURIUM, Strain/Indicator: TA97, Metabolic Activation: WOODCHUCK, LIVER, S-9, 3-METHYLCHOLANTHRENE
  mutagenic call: inactive; negative
[1]
  mutagenic call: inactive; negative
Test System: AMES SALMONELLA TYPHIMURIUM, Strain/Indicator: TA98, Metabolic Activation: WOODCHUCK, LIVER, S-9, 3-METHYLCHOLANTHRENE
  mutagenic call: inactive; negative
[3]
  mutagenic call: inactive; negative
Test System: AMES SALMONELLA TYPHIMURIUM, Strain/Indicator: TA100, Metabolic Activation: WOODCHUCK, LIVER, S-9, 3-METHYLCHOLANTHRENE
  mutagenic call: inactive; negative
[4]
  mutagenic call: inactive; negative
Test System: AMES SALMONELLA TYPHIMURIUM, Strain/Indicator: TA1535, Metabolic Activation: WOODCHUCK, LIVER, S-9, 3-METHYLCHOLANTHRENE
  mutagenic call: inactive; negative
[5]
  mutagenic call: inactive; negative
Test System: AMES SALMONELLA TYPHIMURIUM, Strain/Indicator: TA1538, Metabolic Activation: WOODCHUCK, LIVER, S-9, 3-METHYLCHOLANTHRENE
  mutagenic call: inactive; negative

## O=C1NC(=O)C(CBr)=C1Cl
[2]
  mutagenic call: active; positive
